Test results as given in patent US20090270381A1, “Non-steroidal progesterone receptor modulators” (priority 2007, published 2009).

Each compound was assayed against T1, PR-B (Homo sapiens, UniProt P06401) (assay: Transactivation test on antagonistic activity on PR-B). Conditions: not given.
T1 construct: expressed in transfected cells
T1 sequence (P06401 1-933): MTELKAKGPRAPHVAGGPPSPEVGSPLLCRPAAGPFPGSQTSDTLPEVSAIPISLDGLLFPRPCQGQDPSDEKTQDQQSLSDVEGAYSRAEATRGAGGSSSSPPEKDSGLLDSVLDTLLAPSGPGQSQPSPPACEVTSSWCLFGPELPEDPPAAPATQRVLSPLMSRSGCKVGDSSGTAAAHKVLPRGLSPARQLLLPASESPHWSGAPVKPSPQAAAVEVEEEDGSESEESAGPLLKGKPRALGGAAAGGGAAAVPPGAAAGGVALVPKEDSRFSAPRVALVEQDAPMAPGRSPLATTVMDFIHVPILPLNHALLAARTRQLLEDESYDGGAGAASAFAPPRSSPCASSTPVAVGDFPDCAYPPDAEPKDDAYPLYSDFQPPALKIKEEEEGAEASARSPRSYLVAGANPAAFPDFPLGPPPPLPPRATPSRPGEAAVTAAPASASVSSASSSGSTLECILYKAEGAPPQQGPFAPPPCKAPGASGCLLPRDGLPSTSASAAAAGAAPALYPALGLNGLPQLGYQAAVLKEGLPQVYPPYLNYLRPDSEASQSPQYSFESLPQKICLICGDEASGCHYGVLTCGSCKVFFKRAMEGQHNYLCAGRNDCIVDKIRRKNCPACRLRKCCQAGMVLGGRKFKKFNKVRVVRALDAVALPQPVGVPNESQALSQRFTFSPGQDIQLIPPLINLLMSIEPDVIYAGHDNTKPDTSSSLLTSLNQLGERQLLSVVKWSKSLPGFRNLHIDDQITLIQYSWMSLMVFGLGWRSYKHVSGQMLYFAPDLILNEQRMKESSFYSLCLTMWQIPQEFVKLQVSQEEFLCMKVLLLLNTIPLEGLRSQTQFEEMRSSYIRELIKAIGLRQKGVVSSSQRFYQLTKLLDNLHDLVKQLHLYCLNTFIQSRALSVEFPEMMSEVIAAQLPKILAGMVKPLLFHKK
Assay type: cell-based
Description: The transactivation assay is carried out as described in WO 02/054064.

Compound	IC50 [nM]
N#Cc1ccc(NC(=O)C(O)(C#Cc2ccc(C(=O)O)cc2)C2CCCCC2)cc1Cl (racemic) [Example 12, rac-N-(3-Chloro-4-cyanophenyl)-2-hydroxy-2-cyclohexyl-2-(4-carboxyphenyl)-ethynylacetamide]	1.8

Same assay, conditions: antagonistic activity on PR-B; read-out: IC50

Compound	IC50 [nM]
COc1ccc(CC(O)(C(=O)Nc2ccc(C#N)c(Cl)c2)C2CCCCC2)cc1 (racemic) [Example 16, rac-N-(3-Chloro-4-cyanophenyl)-2-cyclohexyl-2-hydroxy-3-(4-methoxyphenyl)-propionamide]	17
N#Cc1ccc(NC(=O)C(O)(Cc2ccccc2)C2CCCC2)cc1Cl (racemic) [Example 32, rac-N-(3-Chloro-4-cyanophenyl)-2-cyclopentyl-2-hydroxy-3-phenylpropionamide]	27
N#Cc1ccc(NC(=O)C(O)(Cc2ccccc2)C2CCCC2)cc1C(F)(F)F (racemic) [Example 39, rac-N-(4-Cyano-3-trifluoromethylphenyl)-2-cyclopentyl-2-hydroxy-3-phenyl-propionamide]	17
N#Cc1ccc(NC(=O)C(O)(C#Cc2ccccc2)C2CCCCC2)cc1Cl (single isomer, unassigned; (-)) [Example 2b, (−)-N-(3-chloro-4-cyanophenyl)-2-hydroxy-2-cyclohexyl-2-phenylethynylacetamide]	1.8
rac-N-(3-Chloro-4-cyanophenyl)-2-hydroxy-2-cyclohexyl-2-(4-fluorophenyl)-ethynylacetamide [Example 6]	5
rac-N-(3-Chloro-4-cyanophenyl)-2-hydroxy-2-cyclohexyl-2-(4-trifluoromethyl-phenyl)ethynylacetamide [Example 5]	7.9
